{
  "source": "patent US20250057910A1",
  "about": "“Application of Polypeptide in Preparation of Product for Preventing or Treating Skin Injury Diseases” (Sichuan Gooddoctor Panxi Pharmaceutical Co., Ltd., priority 2021, published 2025)",
  "key": {"[1]": {"tested_on": "Balb-3T3 cells (mouse embryo fibroblasts)", "test": "Proliferation of Balb-3T3 cells (CCK-8)", "assay_type": "cell-based", "settings": "48 hours, 2.5% FBS maintenance medium, FIG. 3", "experimental": "(§1) Experimental method: Mouse embryo fibroblasts (Balb-3T3 cells) were cultured in 10% serum medium at 37° C. and 5% CO2, the culture fluid was changed every 1-2 days, and the cell concentration was controlled to be 4*10^6 cells/mL for passaging. The cells were collected and prepared into a concentration of 3* 10^4 cells/mL with 2.5% FBS maintenance medium, seeded into a 96-well cell culture plate with 100 uL per well, i.e., 3000 cells/well, and cultured at 37° C. and 5% CO2 to be adherent.\nThe polypeptide was dissolved in 2.5% FBS maintenance medium and prepared into a stock solution with a concentration of 1 mg/mL. The polypeptide stock solution was prepared with 2.5% FBS maintenance medium to test concentrations as the experimental groups; in the same manner, recombinant human basic fibroblast growth factor FGF (50 ng/mL), and recombinant human platelet derived growth factor PDGF-BB (30 ng/mL) were prepared and added as positive control; and for the blank control group, the same volume of 2.5% FBS maintenance medium was added. For all the groups, 5 duplicate wells were incubated at 37° C. and 5% CO2 for 48 hours. CCK-8 was used to detect cell proliferation: the serum-free medium containing 10% CCK-8 was added to each well, and absorbances were measured at 450 nm by microplate reader after incubation in an incubator for 2 hours."}, "[2]": {"tested_on": "HMEC-1 cells (human microvascular endothelial cells)", "test": "Proliferation of HMEC-1 cells (CCK-8)", "assay_type": "cell-based", "settings": "48 hours, 0% serum medium, FIG. 2", "experimental": "as §1, with “Human microvascular endothelial cells (HMEC-1” for “Mouse embryo fibroblasts (Balb-3T3”, “4*10^4” for “3* 10^4”, “a serum-free” for “2.5% FBS maintenance”, “4000” for “3000”\nThe polypeptide was dissolved in PBS solution and prepared into a stock solution with a concentration of 1 mg/mL. The polypeptide stock solution was prepared with 0% serum medium to test concentrations as the experimental groups; in the same manner, recombinant human vascular endothelial growth factor VEGF (100 ng/mL) was prepared and added as positive control; and for the blank control group, the same volume of 0% serum medium without drugs was added. For all the groups, 5 duplicate wells were incubated at 37° C. and 5% CO2 for 48 hours. The CCK-8 was used to detect cell proliferation: serum-free medium containing 10% CCK-8 was added to each well, and absorbances were measured at 450 nm by microplate reader after incubation in an incubator for 2 hours."}, "db/db mice": {"tested_on": "db/db mice", "test": "Healing of skin ulcers (full-thickness back wound) in db/db mice", "assay_type": "in vivo, mouse", "settings": "for Wound healing rate: db/db mice, topical, polypeptide 30 μg/cm^2 qd, GeneTime 40 IU/cm^2 qd, Kangfuxin Ye 40 μL/mouse Bid, Mean ± SD, n = 10", "experimental": "Experimental animals: Diabetic model mice (db/db male mice), normal mice (m/m male mice), SPF grade, 8-10 weeks of age, weighting 40-50 g, from Changzhou Cavens Experimental Animal Co., Ltd., with the experimental animal production license number of SCXK (Su) 2016-0010, and the experimental animal use license number of SYXK (Shanghai) 2020-0038.\nExperimental method: After the blood glucose of the db/db mice reached the standard (blood glucose after fasting for 4 h>16.7 mmol/L), the mice were randomly divided into 5 groups with 10 mice in each group, namely, normal control group, model control group, Kangfuxin Ye group (40 μL per mouse), GeneTime group (40 IU/cm^2), the subject polypeptide group (30 μg/cm^2). After the mice were anesthetized with isoflurane inhalation, a circular wound with a diameter of about 12 mm was cut on the back of the mice with a cutter from the full layers of the skin to reach the fascia layer. The wound was photographed and the wound area was recorded as the baseline value (the wound was recorded as Day0). From the next day (Day 1), the animals in each group were administered as required, and all the skin wounds were applied externally. Both the normal control group and the model control group were given 40 μL of normal saline, and the GeneTime group (40 IU/cm^2) was given Recombinant human epidermal growth factor topical solution diluted in 40 μL of normal saline (Shenzhen Watsin Genetech Ltd.), and the subject polypeptide group (30 μg/cm^2) was given the corresponding concentration of the polypeptide prepared by using 40 μL normal saline, once a day; the Kangfuxin Ye group was given 40 μL of Kangfuxin Ye (SICHUAN GOODDOCTOR PANXI PHARMACEUTICAL CO., LTD.), twice a day. Administration was continued every day until the wound was basically healed. The skin wounds were measured and photographed twice a week, the areas of the wounds were calculated with the Image-J software, and the healing of the wounds in each group of animals was observed."}, "[3]": {"tested_on": "Transgenic zebrafish with vascular green fluorescence", "test": "Angiogenesis in zebrafish with simvastatin-induced microvessel deficiency", "assay_type": "in vivo", "settings": "intravenous injection 12.5, 25.0 and 50.0 mg/mL, 10 nL, 2 days, vs model control", "experimental": "Experimental animals: Transgenic zebrafish with vascular green fluorescence, raised in water for culturing fish at 28° C. (water quality: 200 mg of instant dissolving sea salt being added to every 1 L of water made by reverse osmosis, with a conductivity of 450-550 μS/cm, a pH of 6.5-8.5 and a hardness of 50-100 mg/L CaCO3), at the age of 1 day post fertilization (1 dpf). The animals were provided by the fish breeding center of Hangzhou Hunter Biotechnology Co., Ltd. with the experimental animal use license number of SYXK (Zhejiang) 2012-0171, and the breeding management complied with the requirements of international AAALAC certification (certification number: 001458).\nExperimental method: 1 dpf transgenic zebrafish with vascular green fluorescence were randomly selected and placed in a 6-well plate, with 30 fish per well (per experimental group). […] Treatment was performed at 28° C. for 2 days, 10 zebrafish were randomly selected in each experimental group and placed under a fluorescence microscope to take photos, the data were analyzed and collected using NIS-Elements D 3.20 advanced image processing software, the subintestinal vascular area and the number of subintestinal vascular branches were analyzed, and the statistical analysis results of these indexes were used to evaluate the efficacy of the samples of promoting angiogenesis."}},
  "note": "Ends that are not written are not given here.",
  "data": [
    {"sequence": "PAAEPVPL [polypeptide]", "values": [
      {"measurement": "Proliferation-promoting effect on the Balb-3T3 cell line", "setting": "[1]", "result": "significant effect of promoting proliferation"},
      {"measurement": "Proliferation-promoting effect on the HMEC-1 cell line", "setting": "[2]", "result": "significant effect of promoting proliferation"},
      {"measurement": "Wound healing rate", "setting": "db/db mice; Day 0 (baseline)", "result": "0.00 ± 0.00", "unit": "%"},
      {"measurement": "Wound healing rate", "setting": "db/db mice; Day 3", "result": "−4.66 ± 17.55", "unit": "%"},
      {"measurement": "Wound healing rate", "setting": "db/db mice; Day 7", "result": "13.06 ± 17.65", "unit": "%"},
      {"measurement": "Wound healing rate", "setting": "db/db mice; Day 10", "result": "40.91 ± 16.33", "unit": "%"},
      {"measurement": "Wound healing rate", "setting": "db/db mice; Day 14", "result": "89.44 ± 8.99", "unit": "%"},
      {"measurement": "Skin wound healing in diabetic mice (statement in words)", "setting": "db/db mice; day 14, 30 μg/cm^2 qd, vs model control", "result": "significantly promote skin wound healing"},
      {"measurement": "Subintestinal vascular area (area of regenerated blood vessels)", "setting": "[3]; FIG. 6", "result": "significantly promote the increase of the subintestinal vascular area"},
      {"measurement": "Number of subintestinal vascular branches", "setting": "[3]; FIG. 7", "result": "the increase of the number of subintestinal vascular branches"}
    ]}
  ]
}
